Experimental data as given in ChEMBL document CHEMBL3259720, “Design of novel multiple-acting ligands towards SERT and 5-HT2C receptors” (Bioorg Med Chem Lett, 2014).

Legend:
Liver microsome = assay: Intrinsic clearance in human liver microsomes measured per gram of tissue at 2.5 uM after 20 mins; format: ADME
[1] = target: Sodium-dependent serotonin transporter (Rattus norvegicus, UniProt P31652); assay: biochemical
Description: Displacement of [3H]citalopram from SERT in Sprague-Dawley rat whole brain membranes after 1 hr by liquid scintillation spectrophotometric analysis

Liver = assay: Intrinsic clearance in mouse liver microsomes measured per gram of tissue at 2.5 uM after 20 mins; format: ADME
[2] = target: T1, 5-hydroxytryptamine receptor 2C (Rattus norvegicus, UniProt P08909); assay: biochemical
T1 sequence (P08909 whole entry): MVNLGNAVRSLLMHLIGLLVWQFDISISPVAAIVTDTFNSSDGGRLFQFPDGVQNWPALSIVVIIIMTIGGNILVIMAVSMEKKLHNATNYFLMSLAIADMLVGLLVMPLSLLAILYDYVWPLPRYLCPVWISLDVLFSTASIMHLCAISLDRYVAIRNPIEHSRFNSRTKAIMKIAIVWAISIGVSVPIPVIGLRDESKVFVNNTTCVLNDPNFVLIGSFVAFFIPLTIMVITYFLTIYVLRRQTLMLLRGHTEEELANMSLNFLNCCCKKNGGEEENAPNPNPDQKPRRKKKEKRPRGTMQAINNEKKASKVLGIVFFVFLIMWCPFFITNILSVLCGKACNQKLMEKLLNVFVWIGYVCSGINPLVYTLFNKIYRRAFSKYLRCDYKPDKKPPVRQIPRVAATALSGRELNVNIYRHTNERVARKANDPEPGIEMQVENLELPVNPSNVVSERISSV
Description: Displacement of [3H]mesulergine from 5-HT2C receptor in Sprague-Dawley rat choroid plexus membranes after 30 mins by liquid scintillation spectrophotometric analysis

[3] = Apparent permeability from apical to basolateral side in vinblastine-treated human Caco2 cells at 3 to 50 uM; format: ADME, cell-based; details: Caco-2
in vitro = details: human, Caco-2
Description: Efflux ratio of apparent permeability from basolateral to apical over apical to basolateral side in vinblastine-treated human Caco2 cells at 3 to 50 uM

[4] = target: Sodium-dependent serotonin transporter (Rattus norvegicus) (UniProt P31652); assay: Displacement of [3H]citalopram from SERT in Sprague-Dawley rat whole brain membranes at 300 nM after 1 hr by liquid scintillation spectrophotometric analysis relative to control; format: tissue-based; details: Membrane
Sequence of Sodium-dependent serotonin transporter (Rattus norvegicus) (P31652 whole entry): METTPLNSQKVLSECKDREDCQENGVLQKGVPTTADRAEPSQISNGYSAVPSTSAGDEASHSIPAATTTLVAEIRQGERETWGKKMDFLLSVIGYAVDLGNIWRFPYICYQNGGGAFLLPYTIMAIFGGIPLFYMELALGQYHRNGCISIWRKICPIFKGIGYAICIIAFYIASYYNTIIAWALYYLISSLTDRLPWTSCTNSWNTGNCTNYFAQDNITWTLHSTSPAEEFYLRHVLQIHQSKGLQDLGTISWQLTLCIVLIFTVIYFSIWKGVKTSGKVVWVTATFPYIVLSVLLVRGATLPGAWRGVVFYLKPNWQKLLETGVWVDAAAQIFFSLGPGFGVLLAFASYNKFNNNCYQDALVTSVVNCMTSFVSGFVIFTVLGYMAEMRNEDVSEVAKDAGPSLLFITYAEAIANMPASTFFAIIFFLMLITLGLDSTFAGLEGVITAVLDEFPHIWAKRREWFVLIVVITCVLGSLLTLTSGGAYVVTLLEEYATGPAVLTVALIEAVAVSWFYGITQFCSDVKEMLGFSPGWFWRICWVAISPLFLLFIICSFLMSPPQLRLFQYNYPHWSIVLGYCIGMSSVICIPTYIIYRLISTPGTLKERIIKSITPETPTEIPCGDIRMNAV

[5] = target: T2, 5-hydroxytryptamine receptor 2C (Rattus norvegicus) (UniProt P08909); assay: Displacement of [3H]mesulergine from 5-HT2C receptor in Sprague-Dawley rat choroid plexus membranes at 1000 nM after 30 mins by liquid scintillation spectrophotometric analysis relative to control; details: Membrane
T2 sequence (whole entry): T1 sequence (P08909 whole entry)

Sequence of Sodium-dependent serotonin transporter (P31652 whole entry): as above

Compound	Ki [1] [nM]	Ki [2] [nM]	also measured
Cc1ccc(NC(=O)Nc2ccc(OC(CCN(C)C)c3ccccc3)cc2)cc1Cl (centres undefined)	61.4	0.6	CLH (Liver microsome): 0.06 mL/min; CLH (Liver): 0.9 mL/min
COc1ccc(C(=O)Nc2ccc(OC(CCN(C)C)c3ccccc3)cc2)cc1C(F)(F)F (centres undefined)	22.3	90.6	
CN(C)CCC(Oc1ccc(NC(=O)Nc2ccc3ccn(C)c3c2)cc1)c1ccccc1 (centres undefined)	19.3	10.9	
CN(C)CCC(Oc1ccc(NC(=O)Nc2ccc3ccccc3c2)cc1)c1ccccc1 (centres undefined)	62	1.7	CLH (Liver): 0.03 mL/min
Cn1ccc2cc(NC(=O)Nc3cccnc3)ccc21	> 10000	124	
CN(C)CCC(Oc1ccc(NC(=O)Nc2ccc(Cl)c(Cl)c2)cc1)c1ccccc1 (centres undefined)	135	2.9	
CN(C)CCC(Oc1cccc(NC(=O)Nc2ccc3ccccc3c2)c1)c1ccccc1 (centres undefined)	28.2	87.6	
CN(C)CCC(Oc1ccc(NC(=O)Nc2ccc3c(ccn3C)c2)cc1)c1ccccc1 (centres undefined)	9	15.9	Papp A→B at 50 µM [3]: 5.8 ×10⁻⁶ cm/s; efflux ratio at 50 µM (in vitro): 5.3
COc1cc(NC(=O)Nc2ccc(Cl)c(Cl)c2)ccc1OC(CCN(C)C)c1ccccc1 (centres undefined)		2.8	inhibition [4]: 38%
CN(C)CCC(Oc1ccc(NC(=O)N(C)c2ccc(Cl)c(Cl)c2)cc1)c1ccccc1 (centres undefined)	89.6	78.9	efflux ratio at 50 µM (in vitro): 1.6
CSc1ccc(NC(=O)Nc2ccc(OC(CCN(C)C)c3ccccc3)cc2)cc1C(F)(F)F (centres undefined)		3.4	inhibition [4]: 31%
CN(C)CCC(Oc1ccc(NC(=O)Nc2ccc3ccn(C)c3c2)cn1)c1ccccc1 (centres undefined)			inhibition [4]: 1%; inhibition [5]: 15%
Cc1ccc(NC(=O)Nc2ccc(OC(CCN(C)C)c3ccccc3)cc2)cc1I (centres undefined)	121	2.4	
CN(C)CCC(Oc1ccc(NC(=O)c2ccc(Cl)c(Cl)c2)cc1)c1ccccc1 (centres undefined)	65.3	57.1	CLH (Liver microsome): 0.65 mL/min; Papp A→B at 50 µM [3]: 11.3 ×10⁻⁶ cm/s; efflux ratio at 50 µM (in vitro): 1.1
CN(C)CCC(Oc1ccc(N2CCN(c3ccc(Cl)c(Cl)c3)C2=O)cc1)c1ccccc1 (centres undefined)	102	10.2	
CN(C)CCC(Oc1ccc(NC(=O)Nc2ccc3ccccc3c2)cn1)c1ccccc1 (centres undefined)			inhibition [4]: 3%; inhibition [5]: 43%
CN(C)CCC(Oc1ccc(NC(=O)Nc2ccc3nccn3c2)cc1)c1ccccc1 (centres undefined)	4		inhibition [5]: 53%
COc1ccc(NC(=O)Nc2ccc(Cl)c(Cl)c2)cc1OC(CCN(C)C)c1ccccc1 (centres undefined)		197	inhibition [4]: -9%
CN(C)CCC(Oc1cccc(NC(=O)Nc2ccc3c(ccn3C)c2)c1)c1ccccc1 (centres undefined)	9.4	652	
CCn1ccc2cc(NC(=O)Nc3ccc(OC(CCN(C)C)c4ccccc4)cc3)ccc21 (centres undefined)	37.9	10.7	
O=C(Nc1cccnc1)Nc1ccc2ccccc2c1	> 10000	6.2	
Cc1ccc(C(=O)Nc2ccc(OC(CCN(C)C)c3ccccc3)cc2)cc1Cl (centres undefined)	34.6	45.3	CLH (Liver microsome): 0.59 mL/min; Papp A→B at 50 µM [3]: 19.9 ×10⁻⁶ cm/s; efflux ratio at 50 µM (in vitro): 0.7
CN(C)CCC(Oc1ccc(NC(=O)Nc2ccc3c(ccn3C)c2)cn1)c1ccccc1 (centres undefined)			inhibition [4]: -5%; inhibition [5]: 7%
COc1ccc(NC(=O)Nc2ccc(OC(CCN(C)C)c3ccccc3)cc2)cc1Cl (centres undefined)	41.1	11.2	CLH (Liver microsome): 0.68 mL/min; Papp A→B at 50 µM [3]: 7.5 ×10⁻⁶ cm/s; efflux ratio at 50 µM (in vitro): 2.2
COc1cc(NC(=O)Nc2ccc(OC(CCN(C)C)c3ccccc3)cc2)ccc1Cl (centres undefined)	31	16.3	
COc1ccc(C(=O)Nc2ccc(OC(CCN(C)C)c3ccccc3)cc2)cc1Cl (centres undefined)	15.9	152	
COc1ccc(NC(=O)Nc2ccc(OC(CCN(C)C)c3ccccc3)cc2)cc1C(F)(F)F (centres undefined)	96.4	3.3	
